Laboratory results from patent publication US6143737A, “Progesterone analogs to reverse multidrug resistance” (priority 1996, dated 2000).

What was measured:
MCF-7^ADR cells [1] = experiment: [^3 H] VBL accumulation in MCF-7^ADR cells; assay type: cell-based, human
Protocol: 5:231-243 (1985)) and provide sufficient free TAM levels in the ER-positive cells.
(§1) While many PGP-reversing agents have been studied, the majority are maximally active in vitro at concentrations≥10 μM. It is widely acknowledged that, for many of these compounds, it is impossible to achieve this level in the sera of patients without inducing severe dose limiting toxicities (Miller, T. P. et al., J. Clin. Oncol. 9:17-24 (1991); Murren & Hait, Oncology Res. 1:1-6 (1992); Dalton, W. D. et al., J. Clin. Oncol. 7:415-424 (1989); Miller, R. L. et al., J. Clin Oncol. 6:880-888 (1988)). Our compounds were evaluated in vitro using concentrations likely to be pharmacologically relevant. […] To determine potency relative to verapamil, we compared the equieffective concentrations. […]. Oncol. 9:17-24 (1991); Dalton, W. D. et al., J. Clin. Oncol. 7:415-424 (1989)). Similar serum levels of progestagens are achieved in patients receiving standard dosing, e.g. megesterol acetate (0.7 μM) (Lundgren & Lonning, J. Steroid. Biochem. 36:105-109 (1990)).
(§2) We then determined the relative potency for increasing [^3 H] VBL accumulation in control (parental) and resistant cells (MCF-7^ADR) and/or MDR1 transduced in comparison with progesterone and verapamil. […]. […]

CL 10.3 cells = experiment: [^3 H] VBL accumulation in MDR1-transduced CL 10.3 cells; assay type: cell-based, human
Protocol: While many PGP-reversing agents have been studied, the majority are maximally active in vitro at concentrations≥10 μM. […] Our compounds were evaluated in vitro using concentrations likely to be pharmacologically relevant. […] To determine potency relative to verapamil, we compared the equieffective concentrations. […] Oncol.
We then determined the relative potency for increasing [^3 H] VBL accumulation in control (parental) and resistant cells (MCF-7^ADR) and/or MDR1 transduced in comparison with progesterone and verapamil.

[2] = tested on: MCF-7^ADR cells and cells transfected with the MDR gene (CL 10.3); assay type: cell-based, human
Protocol: as §1, §2

sensitive parental cells = experiment: Effect in sensitive (parental) control cells: VBL accumulation and resistance reversal; assay type: cell-based, human
From the text: We then determined the relative potency for increasing [^3 H] VBL accumulation in control (parental) and resistant cells (MCF-7^ADR) and/or MDR1 transduced in comparison with progesterone and verapamil. […]. […] […].
(§3) The ability of compound 4 to reverse both [^3 H]

MCF-7^ADR cells [3] = tested on: MCF-7^ADR cells
Protocol: (§4) The growth inhibition experiments, i.e., anchorage dependent and independent assays, are designed to allow evaluation of drug interactions by isobologram analysis. Thus, they include a full definition of the dose-response curves relative to the single agents (untreated and up to 8 drug concentrations), all combinations of 5 concentrations of the modulating agent (e.g., C7 analogue) and up to 9 concentrations of the target agent. […] Briefly, cell monolayers are treated with the appropriate drugs, reversing agents and vehicle(s), the monolayers washed 3 times with growth media, gently trypsinized, and suspended in 1.5 ml growth medium containing 0.6% (w/v) agar at 41° C. […] This agar solution is placed over a solid bottom agar layer and incubated for 10 days at 37° C. Dishes are refed with 500 μl of growth medium on days 3 and 6. Colonies of 50 cells or more (~60 μm diameter) are counted using an Omnicron electronic colony counter. Statistical analyses of colony forming ability will be performed using ANOVA.
(§5) Dose-response curves of the cytotoxic drug are obtained in the absence and presence of the chemosensitizer. The curves are corrected by dividing the observed survival values by the fractional survival to the chemosensitizer alone (where present in the combination), and IC50 values obtained by interpolation on the corrected curves. The activity of the chemosensitizer will be quantified as FS=IC50 (-)/IC50 (+), where FS=Fold Sensitization, and IC50 (-) and IC50 (+) are the cytotoxic drug IC50 s respectively in the absence and presence of the chemosensitizer.

MDA435/LCC6^MDR1 cells = settings: 1 μM compound 4
Protocol: as §4, §5

PGP-resistant cells = experiment: PGP-mediated resistance reversal (VBL cytotoxicity, continuous exposure); assay type: cell-based; settings: preliminary data
From the text: (§6) Information on drug stability in serum also may be indirectly assessed by comparing effects on [^3 H] VBL accumulation with cytotoxicity (reversing) assays using a continuous exposure. For example, Thimmaiah, K. N. et al. (J. Med. Chem. 35:3358-3364 (1992)) reported that some phenoxazine analogues increased [^3 H] VBL accumulation but were ineffective at reversing VBL cytotoxicity. […] VBL accumulation and reversing PGP-mediated resistance.

[4] = assay type: in vitro ADME
From the text: as §6, §3

[5] = MCF-7^ADR and MDR-transfected cells, up to

CC(=O)C1CCC2C3C(Sc4ccc(NC(=O)NCCc5ccccc5)cc4)CC4=CC(=O)CCC4(C)C3CCC12C (stereo not shown) [Compound 4]
concentration equieffective with the ED50 of verapamil for increasing intracellular VBL: fold lower than progesterone (MCF-7^ADR cells [1]): 35 fold | concentration equieffective with the ED50 of verapamil for increasing intracellular VBL: fold lower than verapamil (MCF-7^ADR cells [1]): 5 fold | concentration equieffective with the ED50 of verapamil for increasing intracellular VBL: fold lower than progesterone (CL 10.3 cells): 30 fold | concentration equieffective with the ED50 of verapamil for increasing intracellular VBL: fold lower than verapamil (CL 10.3 cells): 7 fold | maximal increase in intercellular VBL relative to verapamil [2]: equivalent to that achievable with verapamil | potency relative to progesterone (fold more potent) [2, 5]: up to 35 fold | potency relative to verapamil, equal-molar basis (ratio of ED50 s) [2, 5]: up to 6 fold | potency relative to verapamil in vitro (VBL accumulation and cytotoxicity) ([2]; human): ≥ 6 fold | effectiveness among the novel C7 analogs ([2]; preliminary analyses): more effective of the novel C7 analogs | increasing [^3 H] VBL accumulation ([2]; preliminary data): highly potent | potency in increasing [^3 H] VBL accumulation relative to the lead compound (progesterone) ([2]; up to): up to 35 fold | potency in increasing [^3 H] VBL accumulation relative to verapamil ([2]; up to): up to 7 fold | specificity for PGP (sensitive parental cells; PGP-resistant vs sensitive parental cells): specific for PGP | activity in sensitive control cell populations (sensitive parental cells; sensitive control / parental cells): not in sensitive control cell populations | fold sensitization to VBL at VBL's IC50 (MCF-7^ADR cells [3]; 1 μM compound 4, MCF-7^ADR): up to 9 fold | residual VBL resistance (MCF-7^ADR cells [3]; MCF-7^ADR, 1 μM compound 4, from an initial 32-fold): 3.8 fold | potency relative to progesterone in increasing VBL cytotoxicity (MCF-7^ADR cells [3]; human): approximately 23 fold | potency relative to verapamil in increasing VBL cytotoxicity (MCF-7^ADR cells [3]; human): approximately 6 fold | fold sensitization to VBL at VBL's IC50 (MDA435/LCC6^MDR1 cells; transduced MDA435/LLC6 cells): 20 fold | residual VBL resistance (MDA435/LCC6^MDR1 cells; MDA435/LCC6MDR1, from an initial 49-fold): 2.4 fold | reversing PGP-mediated resistance (PGP-resistant cells): highly potent | stability in vitro [4]: stable in vitro
